Laboratory results taken from ChEMBL document CHEMBL5143706, “2-Alkyl substituted benzimidazoles as a new class of selective AT2 receptor ligands” (Bioorg Med Chem, 2022).

Columns and labels:
[1] = biological target: T1, Type-2 angiotensin II receptor (Homo sapiens, UniProt P50052); assay: Displacement of [125-I]-[Sar1Ile8]-angiotensin II from human AT2R expressed in HEK293 cell membrane assessed as inhibition constant by radioligand binding assay; type: cell membranes
T1 sequence (P50052 whole entry): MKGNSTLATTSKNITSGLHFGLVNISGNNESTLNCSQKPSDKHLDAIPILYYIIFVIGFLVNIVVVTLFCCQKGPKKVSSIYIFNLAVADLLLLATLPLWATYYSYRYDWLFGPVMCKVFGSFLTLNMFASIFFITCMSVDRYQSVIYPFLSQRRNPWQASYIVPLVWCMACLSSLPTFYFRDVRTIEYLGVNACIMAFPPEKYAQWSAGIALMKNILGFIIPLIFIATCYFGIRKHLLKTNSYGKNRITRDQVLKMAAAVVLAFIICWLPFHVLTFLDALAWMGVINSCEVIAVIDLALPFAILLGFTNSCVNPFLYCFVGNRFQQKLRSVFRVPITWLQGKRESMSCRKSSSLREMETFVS

[2] = biological target: T2, Type-1 angiotensin II receptor (Homo sapiens, UniProt P30556); assay: Displacement of [125-I]-[Sar1Ile8]-angiotensin II from human AT1R expressed in HEK293 cell membrane assessed as inhibition constant by radioligand binding assay; type: cell membranes
T2 sequence (P30556 whole entry): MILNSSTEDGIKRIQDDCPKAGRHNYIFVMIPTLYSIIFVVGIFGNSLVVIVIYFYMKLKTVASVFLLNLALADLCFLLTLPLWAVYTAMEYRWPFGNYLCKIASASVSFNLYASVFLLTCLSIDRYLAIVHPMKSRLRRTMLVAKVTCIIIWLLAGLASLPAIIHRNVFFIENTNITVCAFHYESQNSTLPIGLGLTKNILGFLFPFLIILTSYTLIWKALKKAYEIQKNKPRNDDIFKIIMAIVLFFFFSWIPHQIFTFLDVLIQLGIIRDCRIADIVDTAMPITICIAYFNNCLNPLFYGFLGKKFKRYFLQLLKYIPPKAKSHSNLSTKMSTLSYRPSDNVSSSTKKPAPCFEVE

Homo sapiens = species: Homo sapiens; assay: Selectivity index, ratio of Ki for displacement of [125-I]-[Sar1Ile8]-angiotensin II from human AT2R expressed in HEK293 cell membrane to Ki for displacement of [125-I]-[Sar1Ile8]-angiotensin II from human AT1R expressed in HEK293 cell membrane; type: cell membranes
[3] = Metabolic stability in human liver microsomes assessed as half life at 1 uM preincubated for 5 mins followed by NADPH addition and measured upto 60 mins by HPLC-MS/MS analysis; type: ADME, Microsome; conditions: time < 65 min
[4] = Metabolic stability in CD-1 mouse liver microsomes assessed as half life at 1 uM preincubated for 5 mins followed by NADPH addition and measured upto 60 mins by HPLC-MS/MS analysis; type: ADME, Microsome; conditions: time < 65 min
[5] = Metabolic stability in Sprague-Dawley rat liver microsomes assessed as half life at 1 uM preincubated for 5 mins followed by NADPH addition and measured upto 60 mins by HPLC-MS/MS analysis; type: ADME, Microsome
[6] = Displacement of [125-I]-angiotensin II from AT2R in pig myometrial membrane assessed as inhibition constant incubated for 1.5 hrs by gamma counter analysis; type: cell membranes, Sus scrofa, Myometrium

For `CCCCOC(=O)NS(=O)(=O)c1ccc(CCC)cc1-c1ccc(Cn2c(C3CCCC3)nc3ccccc32)cc1`, the Ki [1] was 0.035 µM, the Ki [2] was 0.41 µM and the Ratio Ki (Homo sapiens) was 10.

Work on `CCCCOC(=O)NS(=O)(=O)c1ccc(CCC)cc1-c1ccc(Cn2c(C3CC3)nc3ccccc32)cc1` yielded a Ki [1] of 0.031 µM and a Ki [2] of 0.71 µM.

`CCCCOC(=O)NS(=O)(=O)c1ccc(CCC)cc1-c1ccc(Cn2c(Cc3ccccc3)nc3ccccc32)cc1` gave a Ki [1] of 0.015 µM and a Ki [2] of over 3 µM.

`CCCCOC(=O)NS(=O)(=O)c1ccc(CCC)cc1-c1cc(F)c(Cn2c(C(C)(C)C)nc3ccccc32)c(F)c1` showed a Ki [1] of 0.011 µM and a Ki [2] of over 3 µM.

`CCCc1ccc(S(=O)(=O)NC(=O)OCCCC(F)(F)F)c(-c2cc(F)c(Cn3c(C(C)(C)C)nc4ccccc43)c(F)c2)c1` showed a Ki [1] of 0.012 µM, a half-life at 1 µM [3] of 15 min and a Ki [2] of over 3 µM. For the same compound, the half-life at 1 µM [4] was 6 min and the half-life at 1 µM [5] was 16 min.

In the case of `CCCCOC(=O)NS(=O)(=O)c1ccc(CCC)cc1-c1ccc(Cn2c(C)nc3ccccc32)cc1`, the Ki [1] is reported as 0.0094 µM, the half-life at 1 µM [3] is reported as 10 min and the Ki [2] is reported as 0.62 µM. The half-life at 1 µM [4] was 4 min and the half-life at 1 µM [5] was 6 min.

Work on `CCCCOC(=O)NS(=O)(=O)c1ccc(CCC)cc1-c1ccc(Cn2c(CC)nc3ccccc32)cc1` yielded a Ki [1] of 0.011 µM and a Ki [2] of 0.71 µM.

In the case of `CCCCOC(=O)NS(=O)(=O)c1ccc(CCC)cc1-c1ccc(Cn2c(C(F)(F)F)nc3ccccc32)cc1`, the Ki [1] is reported as 0.013 µM, the half-life at 1 µM [3] is reported as 10 min and the Ki [2] is reported as over 1 µM. It also gave a half-life at 1 µM [4] of 4 min and a half-life at 1 µM [5] of 7 min.

In the case of `CCCCOC(=O)NS(=O)(=O)c1ccc(CCC)cc1-c1ccc(Cn2cnc3ccccc32)cc1`, the Ki [1] is reported as 0.029 µM, the half-life at 1 µM [3] is reported as 10 min and the Ki [2] is reported as over 1 µM. It also gave a half-life at 1 µM [4] of 5 min and a half-life at 1 µM [5] of 5 min.

Compound `CCCCOC(=O)NS(=O)(=O)c1sc(CC(C)C)cc1-c1ccc(Cn2ccnc2)cc1` [BULOXIBUTID] has a Ki [6] of 0.0004 µM.

For `CCCCOC(=O)NS(=O)(=O)c1ccc(CCC)cc1-c1ccc(Cn2c(CCCC)nc3ccccc32)cc1`, the Ki [1] was 0.0092 µM and the Ki [2] was 0.18 µM.

With `CCCCOC(=O)NS(=O)(=O)c1ccc(CCC)cc1-c1ccc(Cn2c(C(C)(C)C)nc3ccccc32)cc1` the Ki [1] was 0.0053 µM, the half-life at 1 µM [3] was 12 min and the Ki [2] was over 1 µM. It also gave a half-life at 1 µM [4] of 7 min and a half-life at 1 µM [5] of 20 min.

Work on `CCCc1ccc(S(=O)(=O)NC(=O)OCCC(F)(F)C(F)(F)F)c(-c2ccc(Cn3c(C(C)(C)C)nc4ccccc43)cc2)c1` yielded a Ki [1] of 0.006 µM and a Ki [2] of over 3 µM.

`CCCCOC(=O)NS(=O)(=O)c1ccc(CCC)cc1-c1ccc(Cn2c(C34CC5CC(CC(C5)C3)C4)nc3ccccc32)cc1` gave a Ki [1] of 0.46 µM and a Ki [2] of over 3 µM.

`CCCCOC(=O)NS(=O)(=O)c1ccc(CCC)cc1-c1ccc(Cn2c(C(C)C)nc3ccccc32)cc1` showed a Ki [1] of 0.004 µM, a Ki [2] of 0.39 µM and a Ratio Ki (Homo sapiens) of 100.

Compound `CCCCOC(=O)NS(=O)(=O)c1ccc(CCC)cc1-c1ccc(Cn2c(CC(C)C)nc3ccccc32)cc1` has a Ki [1] of 0.019 µM and a Ki [2] of over 3 µM.

`CCCCOC(=O)NS(=O)(=O)c1ccc(CCC)cc1-c1ccc(Cn2c(-c3ccccc3)nc3ccccc32)cc1` showed a Ki [1] of 0.59 µM and a Ki [2] of over 1 µM.

`CCCc1ccc(S(=O)(=O)NC(=O)OCCCC(F)(F)F)c(-c2ccc(Cn3c(C(C)(C)C)nc4ccccc43)cc2)c1` gave a Ki [1] of 0.0045 µM, a half-life at 1 µM [3] of 20 min and a Ki [2] of over 3 µM. For the same compound, the half-life at 1 µM [4] was 6 min and the half-life at 1 µM [5] was 21 min.

With `CCCCOC(=O)NS(=O)(=O)c1ccc(CCC)cc1-c1ccc(Cn2c(C3CCCCC3)nc3ccccc32)cc1` the Ki [1] was 0.13 µM and the Ki [2] was over 3 µM.

`CCCCOC(=O)NS(=O)(=O)c1ccc(CCC)cc1-c1ccc(Cn2c(CCC)nc3ccccc32)cc1` showed a Ki [1] of 0.014 µM and a Ki [2] of 0.46 µM.

With `CCCCOC(=O)NS(=O)(=O)c1ccc(CCC)cc1-c1ccc(Cn2c(C3CCC3)nc3ccccc32)cc1` the Ki [1] was 0.012 µM and the Ki [2] was 0.4 µM.

`CCCCOC(=O)NS(=O)(=O)c1ccc(CCC)cc1-c1ccc(Cn2c(-c3nccs3)nc3ccccc32)cc1` gave a Ki [1] of 0.0051 µM, a half-life at 1 µM [3] of 21 min and a Ki [2] of over 3 µM. It also gave a half-life at 1 µM [4] of 5 min and a half-life at 1 µM [5] of 16 min.
